These results are taken from the METLIN SMRT retention time set (Domingo-Almenara et al. 2019).

SMILES strings stand for the structures.

The series is described as follows: gradient 5% acetonitrile 3 min, to 50% in 2 min, to 85% in 15 min, held 3 min, 100 µL/min. The settings on record: column: Zorbax Extend-C18 2.1 x 50 mm; eluents: water / acetonitrile, 0.1% formic acid. The method in brief:
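The system's dead and dwell volumes were 40 μL and 900 μL, with a Zorbax Extend-C18 column (2.1 × 50 mm, 1.8 μm) run at 100 μL/min in water and acetonitrile containing 0.1% formic acid each. Pure standards were analyzed in mixtures of ~100 molecules by HPLC–quadrupole time-of-flight mass spectrometry in positive and negative ionization mode. Retention time was assigned from computationally picked, manually inspected adduct peaks.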
`CC(=O)c1ccc(NC(=O)Cn2c(=O)n(-c3ccc(F)cc3)c(=O)c3c2cc(C)n3C)cc1` registered an RP-LC retention time of 763 s.

Regarding `Cc1nnc(C2CCCCCN2S(=O)(=O)c2cccnc2)o1` (stereo unspecified), the RP-LC retention time came out at 691 s.

`CCc1cc(C(=O)Nc2ccc(F)c(C)c2)nc2ccnn12`: the RP-LC retention time was determined as 1180 s.

In the case of `Cn1cc(CN2CCC(C(=O)NCCCN3CCCCC3)CC2)c2cc(Cl)ccc21`, the RP-LC retention time came out at 586 s.

Turning to `CCOC(=O)c1ccc(NC(=O)NC2CC(=O)N(C3CCCC3)C2)cc1` (stereo unspecified), the RP-LC retention time was determined as 768 s.

Compound `Cc1nc(-c2nc3c(s2)CN(C(=O)COc2ccc(Cl)cc2)CC3)cs1` displayed an RP-LC retention time of 922 s.

For the compound `CCn1ccc2cc(S(=O)(=O)N3CCCC(C(=O)NCc4ccc(OC(C)C)cc4)C3)ccc21` (stereo unspecified), the RP-LC retention time turned out to be 1060 s.

In the case of `CCOC(=O)Cc1c(C(=O)OCC)nnc2c(-c3ccccc3)c(C)nn12`, the RP-LC retention time was determined as 1080 s.

Compound `COc1cccc(NC(=O)C2CCN(S(=O)(=O)c3ccc4c(c3)sc(=O)n4C(C)C)CC2)c1` yielded an RP-LC retention time of 960 s.

Consider `COc1cccc(-c2noc(CN3C(=O)C(C)Oc4ccccc43)n2)c1` (stereo unspecified), for which the RP-LC retention time came to 1060 s.

Turning to `COc1ccccc1Oc1ccc(S(=O)(=O)N2CCCC2)cc1`, the RP-LC retention time worked out at 914 s.

In turn, `Cc1cnc(C)n1CC1CCN(S(=O)(=O)c2ccc(C#N)cc2)C1` (stereo unspecified) registered an RP-LC retention time of 628 s.

The compound `COc1ccc(Cl)cc1N1CC(c2nc(-c3ccccc3)no2)CC1=O` (stereo unspecified) came in with an RP-LC retention time of 973 s.

`COC(=O)c1c(NCc2ccc3c(c2)OCO3)c2ccc(F)cc2[nH]c1=O` showed an RP-LC retention time of 734 s.

`O=C(Nc1ccc(F)c(Cl)c1)N1CCC(OC2CCN(Cc3ccccc3)CC2)CC1` had an RP-LC retention time of 710 s.

Take `CCCCCNC(=O)C1CCCN(c2ncc(-c3ccc(F)cc3)cn2)C1` (stereo unspecified): the RP-LC retention time came to 1060 s.

`COc1ccc(C)cc1NC(=O)C(C)C1CCN(C(=O)Nc2ccc(Cl)cc2)CC1` (stereo unspecified) registered an RP-LC retention time of 986 s.

Compound `O=C(Nc1cnc(N2CCCC2)nc1)c1ccccc1Br` gave an RP-LC retention time of 717 s.

Regarding `O=C(C(=O)N1CCN(c2ccccc2Cl)CC1)c1c[nH]c2ccccc12`, the RP-LC retention time was determined as 940 s.

On to `Cc1nnc2ccc(S(=O)(=O)Nc3ccc(F)c(F)c3)cn12`, for which the RP-LC retention time amounted to 692 s.

With `CCOC(=O)N1CCN(C(=O)CSc2nc(-c3cccc(C)c3)ns2)CC1`, the RP-LC retention time was determined as 941 s.

`COc1cccc(C2=NC3(CCN(C(C)C)CC3)NC(c3cc(Br)ccc3O)C2)c1` (stereo unspecified) displayed an RP-LC retention time of 647 s.

Regarding `Cc1ccc2sc(N(Cc3ccccn3)C(=O)C3COc4ccccc4O3)nc2c1C` (stereo unspecified), the RP-LC retention time is 1250 s.

Consider `COc1cc(OC)c(NC(=O)Cn2ccc3sccc3c2=O)cc1Cl`, for which the RP-LC retention time turned out to be 775 s.

As for `Cc1sc2ccn(CC(C)C)c(=O)c2c1C(=O)O`, the RP-LC retention time is 863 s.

For `O=C(Cn1cccc1-c1nnc(-c2ccccc2)o1)Nc1ccc(Cl)cc1`, the RP-LC retention time worked out at 1030 s.

For the compound `CN1C(=O)C(C)(C(=O)Nc2ccc(Cl)cc2F)Oc2cccnc21` (stereo unspecified), the RP-LC retention time is 894 s.

Regarding `O=C(c1cc(-c2cccnc2)n[nH]1)N1CCN(C(=O)c2cc3ccccc3[nH]2)CC1`, the RP-LC retention time came out at 633 s.

Consider `CS(=O)(=O)N1CCC(OC2CCN(C(=O)Nc3ccccc3)CC2)CC1`, for which the RP-LC retention time was determined as 709 s.

`Cc1cc(=O)n(CC(=O)NCc2ccc(Cl)cc2)c(N)n1` came in with an RP-LC retention time of 613 s.

`CN(C)c1cccc(-c2nc(-c3cn(Cc4cccc(F)c4)nn3)no2)c1` displayed an RP-LC retention time of 677 s.

The compound `CCCCn1c(=O)c2ccccc2n(Cc2nc(-c3cc(OC)cc(OC)c3)no2)c1=O` had an RP-LC retention time of 1160 s.

For `O=C(Nc1cc(F)cc(F)c1)Nc1cccc(-c2ccc(N3CCOCC3)nn2)c1`, the RP-LC retention time came out at 748 s.

On to `O=C(NCc1cccc(Cl)c1)C1CCCN(c2cnc3nccnc3c2)C1` (stereo unspecified), for which the RP-LC retention time amounted to 749 s.

`Cc1noc([C@@H]2CN(C(=O)CC3CCCC3)C[C@H]2CO)n1` showed an RP-LC retention time of 672 s.

As to `O=C(C1=NN(Cc2cccc(Cl)c2)c2ccccc2S1(=O)=O)N1CCOCC1`, the RP-LC retention time is 856 s.

Turning to `CC1CC(=O)NN=C1c1ccc(N)c([N+](=O)[O-])c1` (stereo unspecified), the RP-LC retention time amounted to 612 s.

The compound `O=C(NC1CCCCCC1)c1nnc(-c2ccc(S(=O)(=O)N3CCCCC3)cc2)o1` displayed an RP-LC retention time of 1100 s.

Take `OC(COc1ccc(F)cc1)CN1CCN(c2cccc(Cl)c2)CC1` (stereo unspecified): the RP-LC retention time was found to be 734 s.

In the case of `CN(C(=O)CC(=O)Nc1ccc2nc3n(c(=O)c2c1)CCCCC3)c1cccc(C(F)(F)F)c1`, the RP-LC retention time stood at 771 s.

As for `Cc1nc(-c2ccccc2)sc1C(=O)N1CCC(CC(=O)N2CCOCC2)CC1`, the RP-LC retention time turned out to be 667 s.

In the case of `Cc1oc(C2CCN(C(=O)Cn3cnc4c3c(=O)n(C)c(=O)n4C)CC2)nc1C(=O)N1CCCC1`, the RP-LC retention time stood at 619 s.

For the compound `CSc1ccc(-c2nc3cc(C)ccn3c2Nc2ccccc2C)cc1`, the RP-LC retention time is 790 s.

`CNCCC(Oc1ccccc1C)c1ccccc1` (stereo unspecified): the RP-LC retention time was 778 s.

`CC(C)(C)c1csc(-c2csc(S(=O)(=O)Nc3ccc(Br)cc3F)c2)n1` registered an RP-LC retention time of 1330 s.

With `CC(=O)N1CCC(C(=O)Nc2cccc(OCc3nnc(-c4ccc(Cl)cc4)o3)c2)CC1`, the RP-LC retention time came out at 762 s.

`C=Cc1ccc(CN2CCCN(c3ncccc3-c3nc(CCC)no3)CC2)cc1`: the RP-LC retention time worked out at 766 s.

`Cc1cc2nc(N3CCOCC3)n(CC(=O)Nc3ccc(N(C)C)cc3)c(=O)c2n1C`: the RP-LC retention time worked out at 623 s.

On to `CCn1ncn2cc(S(=O)(=O)Nc3ccc(C)cc3)cc2c1=O`, for which the RP-LC retention time came out at 882 s.

The compound `Cc1c(C2CCN(C(=O)NCCc3ccccc3)CC2)noc1N` returned an RP-LC retention time of 700 s.

`COc1cc(Nc2ncc(C(=O)O)c(C(C)C)n2)cc(OC)c1` came in with an RP-LC retention time of 892 s.

`CC(Cc1cccc(C(F)(F)F)c1)NCCCc1ccccc1` (stereo unspecified): the RP-LC retention time was determined as 868 s.

`CN1C(=O)C2CCCCN2c2ccc(C(=O)NCCCN3CCCC3)cc21` (stereo unspecified) returned an RP-LC retention time of 586 s.

In turn, `CCCCCCCCCCNCCSSCc1ccc(Cl)cc1` registered an RP-LC retention time of 1120 s.

Turning to `COc1ccc(-c2cn3ccn(-c4ccc(OC)c(Cl)c4)c(=O)c3n2)cc1`, the RP-LC retention time is 1240 s.

The compound `Cc1ccnc(N2CCC(C(=O)NCCSCc3ccco3)CC2)n1` registered an RP-LC retention time of 680 s.

In turn, `COc1ccccc1-c1nnc(-c2ccc(OC)c(S(=O)(=O)N3CCCC3)c2)o1` came in with an RP-LC retention time of 830 s.

For `O=C(NCCCn1c(C(F)(F)F)nc2cccnc21)Nc1ccccc1Br`, the RP-LC retention time was 860 s.

Take `Cc1nn(C)cc1CNC(=O)c1cnn2c(C(F)F)cc(-c3ccccc3)nc12`: the RP-LC retention time was 786 s.

For the compound `Brc1ccc(OCc2nnc3sc(-c4ccccc4)nn23)cc1`, the RP-LC retention time stood at 1050 s.

`CCCNC(=O)Cn1c(=O)c2cccn2c2ccc(F)cc21` displayed an RP-LC retention time of 729 s.

On to `COc1ccc(N(Cc2nnc3n2CCCCC3)C(=O)Nc2ccccc2OC)cc1`, for which the RP-LC retention time was 772 s.

Compound `CC(Cc1ccco1)NC(=O)C1CCN(S(=O)(=O)c2ccc3c(c2)NC(=O)CO3)CC1` (stereo unspecified) had an RP-LC retention time of 726 s.

In turn, `COc1ccc(Cn2c(C)c(CNCCc3ccco3)c(C(=O)O)c2C)cc1` registered an RP-LC retention time of 704 s.

With `CCSc1nc2ccc(NS(=O)(=O)c3cc(F)ccc3F)cc2s1`, the RP-LC retention time turned out to be 1020 s.

For `O=C(CN1C[C@H]2C[C@H](C1)[C@H]1CCCC(=O)N1C2)NCC1CCCCC1`, the RP-LC retention time is 612 s.

`COc1cccc(CCC(=O)N2CCc3nc[nH]c3C2)c1` returned an RP-LC retention time of 575 s.

For `COC(=O)CNC(=O)c1sc2ncccc2c1-n1cccc1`, the RP-LC retention time came out at 736 s.

`CN(C)S(=O)(=O)c1cccc(-c2nnc(-c3ccccc3Cl)o2)c1` gave an RP-LC retention time of 941 s.

Compound `COc1cccc(Cn2cc(S(=O)(=O)N3CCCCCC3)ccc2=O)c1` came in with an RP-LC retention time of 895 s.

In the case of `Cc1nnc(SCC(=O)NCCc2ccccc2)s1`, the RP-LC retention time stood at 650 s.

The compound `CC(C)NC(=O)C1CCN(c2nc3ccc(-c4cccc(F)c4)nc3s2)CC1` returned an RP-LC retention time of 942 s.

For `O=C(NCc1cc(F)cc(F)c1)C1CCc2nc(N3CCCCC3)ncc2C1` (stereo unspecified), the RP-LC retention time turned out to be 778 s.

On to `O=c1n(CC2CC2)nc2n1CCC(NS(=O)(=O)c1cccnc1)CC2` (stereo unspecified), for which the RP-LC retention time turned out to be 621 s.

The compound `O=C(NCc1ccc(F)cc1F)C1CCCN(c2ccc(-c3ccccc3)nn2)C1` (stereo unspecified) gave an RP-LC retention time of 722 s.

Compound `O=S(=O)(NCC(O)(c1ccccc1)C(F)(F)F)c1cc(F)ccc1F` (stereo unspecified) displayed an RP-LC retention time of 870 s.

For the compound `COc1cc(NC(=O)N2CCC(CN3CCc4ccccc4C3)CC2)cc(OC)c1OC`, the RP-LC retention time stood at 612 s.

`COc1ccc(Cl)cc1C(=O)N1CCN(C2=NC=CN3CC(C)N=C23)CC1` (stereo unspecified) registered an RP-LC retention time of 578 s.

As for `Cc1sc(C)c(S(=O)(=O)NCc2ccco2)c1-c1cc(C(F)(F)F)on1`, the RP-LC retention time worked out at 1060 s.

The compound `CCn1nc(CNC(=O)c2ccc3c(c2)OCO3)c2ccccc21` displayed an RP-LC retention time of 804 s.

Regarding `Cc1cc(C(=O)N[C@@H]2CN(c3ncccn3)C[C@H]2CO)c(C)o1`, the RP-LC retention time was 616 s.
